Series [1] has as its system CRF-induced cAMP production in AtT-20 cells. Kind of series: cAMP production inhibition experiment using AtT-20 cells. It counts as cell-based. The conditions noted are these: Mus musculus, AtT20, CRF 30 nM. The protocol: <cAMP Production Inhibition Experiment Using AtT-20 Cells>
AtT-20 cell is a cell-line derived from mouse pituitary gland tumor, which is known to respond to corticotropin releasing hormone (CRF), to produce cAMP by activation of the intracellular adenylate cyclase system, and to release adrenocorticotropic hormone (ACTH) (Biochem. Biophys. Res. Com., 106, 1364–1371, 1982). In this experiment, AtT-20 cells (1×10^5) were suspended in D-MEM (0.1% FBS) and seeded in a 96-well plate, and then 1 mM (final concentration) phosphodiesterase inhibitor (IBMX, Calbiochem) was added prior to incubation for 30 minutes at 37° C. The diluted test compound solution was then added prior to incubation for 30 minutes at 37° C., and CRF (final concentration: 30 nM) was added prior to further incubation for 30 minutes at 37° C. The cells were collected by centrifugation (1,800 rpm (630×g), 5 minutes), and then lysed with lysis buffer (0.2% dodecyltrimethylammmonium bromide), and the intracellular cAMP production was assayed by HTRF method. cAMP kit HTRF (Nihon Schering) was used for the cAMP assay.
(2) Calculation of cAMP Production Inhibitory Activity;
The cAMP production of each sample was represented as a percentage (% of control), with the CRF (final concentration: 30 nM)-added cells defined as 100% (control).
Background: cAMP levels reflect the balance of adenylyl cyclase and phosphodiesterase activity.

The next series has as its system CYP3A4. The note with it: human, hepatocytes, 48 h. The protocol: Evaluation of Drug Metabolizing Enzyme (CYP3A4) Inducibility Using Cryopreserved Human Hepatocyte
Cryopreserved hepatocytes (In Vitro Technology) were rapidly thawed while stirring at 37° C., and then ice-cooled William's Medium E (10% FBS, +PSG) was slowly added to the cells prior to centrifugation at 500 rpm for 5 minutes. After removing the supernatant, the obtained hepatocytes were diluted with ice-cooled William's Medium E to a concentration of 5×10^5 cells/mL, seeded on a 48-well collagen coated plate (BD Biosciences) at 1×10^5 cells/cm^2 and incubated for about 24 hours at 37° C., 5% CO2, after which the medium was changed with Hepato-STIM™ (BD Biosciences) (+EGF, PSG, −FBS) and culture was maintained for another 24 hours under conditions of 37° C., 5% CO2. At approximately 48 hours after the cell seeding, the test compound or rifampicin (SIGMA, positive control) in the form of a diluted solution (using Hepato-STIM™ (+EGF, PSG, −FBS)) was added, hepatocyte were incubated for about 24 hours under conditions of 37° C., 5% CO2, and the culture medium was changed with medium containing a freshly prepared dilution of the test compound or rifampicin prior to further incubation for 24 hours under the same conditions. After incubation, the cells were washed once with PBS, and the total RNA was extracted using a Qiagen RNeasy Mini kit (Qiagen). The cDNA was synthesized by reverse-transcription of extracted using TaqMan Reverse Transcription Reagents (Applied Biosystems). The reverse transcription reaction was carried out using oligo dT as primer, with treatment at 25° C. for 10 minutes followed by treatment at 48° C. for 60 minutes, after which the reverse transcriptase was inactivated by treatment at 95° C. for 10 minutes. The obtained cDNA was supplied to a PCR using a Gene Amp PCR system 9700. The obtained cDNA was quantitated using an SYBR Green PCR Core Reagents kit (Applied Biosystems), and the human CYP3A4 and GAPDH mRNA was quantitated using an ABI7700 (Applied Biosystems). The abbreviations used in the test example are explained below. • FBS: Fetal Bovine Serum • PSG: Penicillin (100 U/ml), Streptomycin (100 μg/ml), Glutamine (2 mM) • EGF: Epidermal Growth Factor • GAPDH: Glyceraldehyde-3-Phosphate Dehydrogenase
(2) Calculation of CYP3A4 Inducibility:
Next, for comparison of each test run, the differences between the value of the CYP3A4 mRNA amount divided by the GAPDH mRNA amount with addition of the test compound at various concentrations and with addition of the negative control were calculated as percentages, with 100% being defined as the difference between the values of the CYP3A4 mRNA amount divided by the GAPDH mRNA amount for the positive control and negative control, to determine the inducibility of each test compound.

The target of another series is T1, human CRFR1 (Homo sapiens, UniProt P34998).
T1 construct: The full-length CRFR1 gene was obtained by PCR using human brain cDNA library; expressed in transfected cells
T1 sequence (P34998 24-415): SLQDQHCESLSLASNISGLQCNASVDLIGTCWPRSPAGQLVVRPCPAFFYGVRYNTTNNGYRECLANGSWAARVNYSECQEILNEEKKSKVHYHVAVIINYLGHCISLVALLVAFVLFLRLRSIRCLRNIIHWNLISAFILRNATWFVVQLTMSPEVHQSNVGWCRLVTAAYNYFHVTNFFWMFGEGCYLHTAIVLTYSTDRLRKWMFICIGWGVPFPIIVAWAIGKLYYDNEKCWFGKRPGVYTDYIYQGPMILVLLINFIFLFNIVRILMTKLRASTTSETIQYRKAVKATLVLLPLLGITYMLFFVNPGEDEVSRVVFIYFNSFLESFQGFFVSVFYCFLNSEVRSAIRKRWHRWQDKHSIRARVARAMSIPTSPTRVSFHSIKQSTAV
Briefly: CRFR binding experiment (125I-CRF, SPA, membrane fraction of CRFR1-expressing HEK293 cells). The conditions noted are these: 100 pM 125I-CRF, read-out: CRF1 receptor binding affinity IC50. Here is the method: <CRFR Binding Experiment>
The full-length CRFR1 gene was obtained by PCR using human brain cDNA library (QuickClone™ Clontech). […] The CRFR1 expression vector was introduced into HEK293 cell, and the resistant cells which proliferated in culture medium containing G418 (1 mg/ml) were cloned by the limiting dilution method. […] And the selected cells were used for the experiments.

SMILES strings stand for the structures. Read-outs that look alike come from different tables or passages of the source.

`CCOCc1cc(OC)c(-c2cccc3c(N(CC4CCOCC4)CC4CC4)c(CC)nn23)c(OC)c1` [Example 3, N-Cyclopropylmethyl-N-7-[4-(ethoxymethyl)-2,6-dimethoxyphenyl]-2-ethylpyrazolo[1,5-a]pyridin-3-yl-N-tetrahydro-2H-4-pyranylmethylamine] had a concentration for half-maximal inhibition (IC50) in series [1] of 5.1 nM. The “% of Positive Control (CYP3A4 inducibility)” value (shortened to “% of Positive Control”) with CYP3A4 (0.03 μM) is listed as 3%; with CYP3A4 (0.1 μM), 3%; with CYP3A4 (0.3 μM), 7%; with CYP3A4 (1 μM), 25%; with CYP3A4 (3 μM), 23%; in the series on CYP3A4 (10 μM), 34%. The “inducibility (CYP3A4), positive control defined as 100%” value (shortened to “inducibility (CYP3A4) … as 100%”) in the series with CYP3A4 (1 μM) is reported as not above 40%.
Consider `CCCN(CC1CCOCC1)c1c(CC)nn2c(-c3c(OC)cc(COCC)cc3OC)cccc12` [Example 23, N-7-[4-(Ethoxymethyl)-2,6-dimethoxyphenyl]-2-ethylpyrazolo[1,5-a]pyridin-3-yl-N-propyl-N-tetrahydro-2H-4-pyranylmethylamine], for which the IC50 amounted to 50 nM at human CRFR1 and 6 nM in series [1].
In the same order, the values of `COCc1cc(OC)c(-c2cccc3c(N(CC4CC4)CC4CCOC4)c(SC)nn23)c(OC)c1` (stereo not drawn) [Example 60, N-Cyclopropylmethyl-N-[7-[2,6-dimethoxy-4-(methoxymethyl)phenyl]-2-(methylsulfanyl)pyrazolo[1,5-a]pyridin-3-yl]-N-tetrahydro-3-furanylmethylamine] are 30 nM and 3.5 nM.
Take `CCCN(CC1CCOCC1)c1c(CC)nn2c(-c3c(OC)cc(COC)cc3OC)cccc12` [Example 13, N-7-[2,6-Dimethoxy-4-(methoxymethyl)phenyl]-2-ethylpyrazolo[1,5-a]pyridin-3-yl-N-propyl-N-tetrahydro-2H-4-pyranylmethylamine]: inhibition in series [1] was half-maximal at 11 nM (IC50).
Compound `COCc1cc(OC)c(-c2cccc3c(N(CC4CCOCC4)CC4CC4)c(SC)nn23)c(OC)c1` [Example 59, N-Cyclopropylmethyl-N-[7-[2,6-dimethoxy-4-(methoxymethyl)phenyl]-2-(methylsulfanyl)pyrazolo[1,5-a]pyridin-3-yl]-N-tetrahydro-2H-4-pyranylmethylamine] gave an IC50 in series [1] of 3.5 nM. For the same compound, the “% of Positive Control” value is on record as 2% with CYP3A4 (0.03 μM); 3% in the series on CYP3A4 (0.1 μM); 11% with CYP3A4 (0.3 μM); 25% in the series on CYP3A4 (1 μM); 49% with CYP3A4 (3 μM); 59% in the series on CYP3A4 (10 μM). For the same compound, the “inducibility (CYP3A4) … as 100%” value with CYP3A4 (1 μM) is on record as not above 40%.
`CCc1nn2c(-c3c(OC)cc(COC)cc3OC)cccc2c1N(CC1CCOCC1)CC1CC1` [Example 1, N-Cyclopropylmethyl-N-7-[2,6-dimethoxy-4-(methoxymethyl)phenyl]-2-ethylpyrazolo[1,5-a]pyridin-3-yl-N-tetrahydro-2H-4-pyranylmethylamine] came in with an IC50 in series [1] of 4 nM. Further, the “% of Positive Control” value with CYP3A4 (0.03 μM) was determined as 6%; with CYP3A4 (0.1 μM), 7%; in the series with CYP3A4 (0.3 μM), 12%; in the series with CYP3A4 (1 μM) it was 20%; in the series on CYP3A4 (3 μM), 36%; in the series with CYP3A4 (10 μM), 65%. Further, the “inducibility (CYP3A4) … as 100%” value with CYP3A4 (1 μM) is not above 40%.
In the case of `COCc1cc(OC)c(-c2cccc3c(N(CC4CCOCC4)CC4CC4)c(OC)nn23)c(OC)c1` [Example 47, N-Cyclopropylmethyl-N-7-[2,6-dimethoxy-4-(methoxymethyl)phenyl]-2-methoxypyrazolo[1,5-a]pyridin-3-yl-N-tetrahydro-2H-4-pyranylmethylamine], the 50% inhibitory concentration (IC50) in series [1] is 50 nM.

For orientation: IC50 means the midpoint of a concentration-inhibition curve.

These data come from patent US7176216B2, “7-phenylpyrazolopyridine compounds” (Eisai Co., Ltd., priority 2002, dated 2007).
